From patent publication US4175125A, “Method for treating methicillin resistant staphylococcus aureus” (Eli Lilly and Company, priority 1978, dated 1979)
Counter-ions that a name gives are not always drawn. Like-named read-outs stand apart in the source and are kept apart here.

How the values were obtained:
[1] = test system: methicillin-resistant Staphylococcus aureus; experiment: Gradient plate test (MIC) against methicillin-resistant Staphylococcus aureus; type: cell-based; conditions: Staphylococcus aureus, read-out: minimum inhibitory concentration (MIC)
Description: The method used is essentially that described by Bryson and Szybalski in 1952 (Science 116:45-46). The inoculum treatment method used for penicillin resistant Staphylococci was reported by Godzeski et al in Antimicrobial Agents and Chemotherapy, May, 1969, pp. 547-554.
A standard Falcon square plastic petri dish is used. A layer of agar (10 ml.) is poured into one of the square dishes, the dish tipped 5 mm. off the horizontal, and the agar layer allowed to harden in this position. This bottom layer of agar contains the antibiotic, the serum, and/or other material to be tested. The medium is Difco Penassay Agar containing 2 percent agar. We routinely used 4 ml. of human or horse serum for "serum-inactivation" testing. […] Therefore, serum is routinely added only to the bottom layer.
After the bottom, slanted layer of agar medium has hardened, the plate is placed flat and another 10 ml. of medium added and allowed to harden.
The inoculum of resistant Staphylococci, as described, is prepared by diluting the water suspension 1/50 in 0.25 percent agar in sterile water or saline. For Gram negative organisms, an overnight broth culture is diluted 1/50 in the 0.25 percent agar-water. This dilution is thoroughly shaken to evenly suspend the bacteria. To streak the plate, we use a 1 ml. pipet containing an aliquot of the final […] agar dilution. After a little practice, a smooth even stroke of inoculum can be laid down very rapidly. The trick is in the smoothness of the streak--it must be accomplished uniformly and quickly.
After 24 hours incubation at 35°-37° C. the plates are read by simply measuring the length of bacterial growth as a percentage of the entire streak distance which is then converted to the percent of antibiotic concentration in the plate.
Average values of duplicate measurements are calculated and the M.I.C.'s reported are average of 2 streaks on the plate and from 2 to 3 duplicate plates. Eight streaks can be easily placed on each plate. If sharp end points are not obtained, the middle concentration between the beginning of inhibition of the streak to the end of growth is measured. The concentration of the antibiotic under examination is varied from plate to plate in a series as follows: […]
This method of screening penicillins and cephalosporins is quite satisfactory. Control plates containing penicillin and staphcillin or prostaphlin, or other control antibiotic, are used daily for the resistant staphylococcal activity screen. The gradient plate method has shown differences between antibiotics that were not apparent by any other methods of screening. […] We believe that the gradient plate screen is more sensitive to small differences between related antibiotics than other methods and pictures of the plates can provide a permanent record. The method also lends itself readily to modification of specific purposes--e.g., cross gradients.
The compounds listed below are examples of compounds useful in the method of this invention. After the compound name there is given in parentheses, where tested, the minimum inhibitory concentrations (MIC) in micrograms per milliliter (μg/ml) for the compound in the above described gradient plate procedure test against methicillin-resistant Staphylococcus aureus, (in the absence of blood serum/in the presence of 20 percent blood serum).
and pharmaceutically acceptable salts thereof. The abbreviation "s.z." means skip zones.

[2] = test system: Staphylococcus aureus cultures; experiment: Modified Bauer-Kirby Disc Susceptibility Test (Example 11); type: cell-based; set-up: zone of inhibition: dose or concentration left out as unconfirmed; conditions: for zone of inhibition: Staphylococcus aureus; for Change 37°-30°: 30 mg Disc
Description: This example exemplifies the antibiotic activity of 7-[2'-(3"-chloro-4"-fluorophenylthio)acetamido]cephalosporanic acid, a water soluble compound, described in Example 8, against various Staphylococcus aureus cultures, in a modified Bauer-Kirby Disc Susceptibility Test (Bauer, A. W., W. M. M. Kirby, J. C. Sherris, and M. Turck, 1966, Amer. J. Clin. Pathol. 45:493-496). In this test the cultures were incubated at both 37° C. or 30° C. […] 16, 1968, the heterogeneity of methicilllin-resistant S. aureus is manifested by incubation at 30° C.

[3] = test system: Streptococcus pyogenes, strain C203; experiment: Streptococcus pyogenes infection in mice, median effective dose (Example 12); type: in vivo; conditions: infecting challenge 27.9 (XLD50), read-out: ED50
Description: The compound 7-[2"-(3"-chloro-4"-fluorophenyltio)acetamido]cephalosporanic acid, prepared as described in Example 8, was tested for antibiotic effectiveness against Streptococcus pyogenes, strain C203 infections in mice, and is compared with the effectiveness of cephaloridine in the same test. Experience has shown with other compounds, some of which are now commercial antibiotics, that a compound effective against Streptococcus pyrogenes, strain C203 in this test will be effective against Staphylococcus aureus strains in clinical use. This is intended as further evidence that the compounds of the method of this invention should be effective antibiotics in clinical situations.
In this test, a standard in vivo test method described by Wick, W. E., F. Streightoff, and D. H. Holmes. 1961, in J. Bacteriol., 81: 233-235 was used. The oral and subcutaneous median effective doses (ED50) necessary to cure 50 percent of the mice were calculated according to the method of Reed and Muench (Reed, L. J., and H. Meunch. 1938. Am. J. Hyg. 27: 493-497) The results were as follows: […]

Work on CC(=O)OCC1=C(C(=O)O)N2C(=O)C(NC(=O)CSc3ccc(F)c(Cl)c3)C2SC1 (stereo not shown) [Example 8, 7-(3'-chloro-4-fluorophenylthioacetamido)cephalosporanic acid, sodium salt] yielded an MIC ([1]; in the absence of blood serum) of 9.3 µg/mL, an MIC ([1]; in the presence of 20 percent blood serum) of 12.2 µg/mL and a zone of inhibition ([2]; culture 3055 (penicillin sensitive), 30°, read-out: disc susceptibility (zone) at 30°) greater than 35 mm. The zone of inhibition ([2]; culture 3055 (penicillin sensitive), 37°, read-out: disc susceptibility (zone) at 37°) was greater than 35 mm, the zone of inhibition ([2]; culture 3074 (methicillin sensitive, penicillinase producing), 30°, read-out: disc susceptibility (zone) at 30°) was 36 mm and the zone of inhibition ([2]; culture 3074 (methicillin sensitive, penicillinase producing), 37°, read-out: disc susceptibility (zone) at 37°) was 36 mm. For the same compound, the zone of inhibition ([2]; culture 3125 (methicillin resistant), 30°, read-out: disc susceptibility (zone) at 30°) was 36 mm, the zone of inhibition ([2]; culture 3125 (methicillin resistant), 37°, read-out: disc susceptibility (zone) at 37°) was 33.8 mm and the zone of inhibition ([2]; culture 3130 (methicillin resistant), 30°, read-out: disc susceptibility (zone) at 30°) was 31 mm. The zone of inhibition ([2]; culture 3130 (methicillin resistant), 37°, read-out: disc susceptibility (zone) at 37°) was 33.2 mm, the zone of inhibition ([2]; culture 3131 (methicillin resistant), 30°, read-out: disc susceptibility (zone) at 30°) was 29 mm and the zone of inhibition ([2]; culture 3131 (methicillin resistant), 37°, read-out: disc susceptibility (zone) at 37°) was 26.6 mm. For the same compound, the zone of inhibition ([2]; culture 3132 (methicillin resistant), 30°, read-out: disc susceptibility (zone) at 30°) was 28 mm, the zone of inhibition ([2]; culture 3132 (methicillin resistant), 37°, read-out: disc susceptibility (zone) at 37°) was 29.4 mm and the zone of inhibition ([2]; culture 3133 (methicillin resistant), 30°, read-out: disc susceptibility (zone) at 30°) was 24.8 mm. For the same compound, the zone of inhibition ([2]; culture 3133 (methicillin resistant), 37°, read-out: disc susceptibility (zone) at 37°) was 27.6 mm, the zone of inhibition ([2]; culture 3134 (methicillin resistant), 30°, read-out: disc susceptibility (zone) at 30°) was 27.8 mm and the zone of inhibition ([2]; culture 3134 (methicillin resistant), 37°, read-out: disc susceptibility (zone) at 37°) was 28 mm. The zone of inhibition ([2]; culture 3135 (methicillin resistant), 30°, read-out: disc susceptibility (zone) at 30°) was 26.2 mm, the zone of inhibition ([2]; culture 3135 (methicillin resistant), 37°, read-out: disc susceptibility (zone) at 37°) was 28.2 mm and the zone of inhibition ([2]; culture 3136 (methicillin resistant), 30°, read-out: disc susceptibility (zone) at 30°) was 31 mm. It also gave a zone of inhibition ([2]; culture 3136 (methicillin resistant), 37°, read-out: disc susceptibility (zone) at 37°) of 35 mm, a zone of inhibition ([2]; culture 3137 (methicillin resistant), 30°, read-out: disc susceptibility (zone) at 30°) of 22.1 mm and a zone of inhibition ([2]; culture 3137 (methicillin resistant), 37°, read-out: disc susceptibility (zone) at 37°) of 24.4 mm. The zone of inhibition ([2]; culture 3138 (methicillin resistant), 30°, read-out: disc susceptibility (zone) at 30°) was 25.2 mm, the zone of inhibition ([2]; culture 3138 (methicillin resistant), 37°, read-out: disc susceptibility (zone) at 37°) was 25.6 mm and the zone of inhibition ([2]; culture 3139 (methicillin resistant), 30°, read-out: disc susceptibility (zone) at 30°) was 31.6 mm. It also gave a zone of inhibition ([2]; culture 3139 (methicillin resistant), 37°, read-out: disc susceptibility (zone) at 37°) of 34 mm, a zone of inhibition ([2]; culture 3140 (methicillin resistant), 30°, read-out: disc susceptibility (zone) at 30°) of 26.4 mm and a zone of inhibition ([2]; culture 3140 (methicillin resistant), 37°, read-out: disc susceptibility (zone) at 37°) of 28.4 mm. The zone of inhibition ([2]; culture H232 (methicillin sensitive, penicillinase producing), 30°, read-out: disc susceptibility (zone) at 30°) was 34.3 mm, the zone of inhibition ([2]; culture H232 (methicillin sensitive, penicillinase producing), 37°, read-out: disc susceptibility (zone) at 37°) was 33.4 mm and the “Change 37°-30°” value ([2]; culture 3074) was 0 mm. The “Change 37°-30°” value ([2]; culture 3125) was “+2.2 mm”, the “Change 37°-30°” value ([2]; culture 3130) was -2.2 mm and the “Change 37°-30°” value ([2]; culture 3131) was “+2.4 mm”. The “Change 37°-30°” value ([2]; culture 3132) was -1.4 mm, the “Change 37°-30°” value ([2]; culture 3133) was -2.8 mm and the “Change 37°-30°” value ([2]; culture 3134) was -0.2 mm. For the same compound, the “Change 37°-30°” value ([2]; culture 3135) was -2.0 mm, the “Change 37°-30°” value ([2]; culture 3136) was -4.0 mm and the “Change 37°-30°” value ([2]; culture 3137) was -2.3 mm. The “Change 37°-30°” value ([2]; culture 3138) was -0.4 mm, the “Change 37°-30°” value ([2]; culture 3139) was -2.4 mm and the “Change 37°-30°” value ([2]; culture 3140) was -2.0 mm. For the same compound, the “Change 37°-30°” value ([2]; culture H232) was “+0.9 mm”, the “effectiveness vs cephalothin in disc susceptibility test” value ([2]; incubation at 37° C. or 30° C.) was “more effective than cephalothin” and the ED50 ([3]; C203, oral) was 7 mg/kg. For the same compound, the ED50 ([3]; C203, sc, subcut) was less than 0.21 mg/kg.
